In series [1] the test system is Human immunodeficiency virus 1. The experiment in a line: Antiviral activity against HIV1 3B in human MT4 cells assessed as protection of cell against virus-induced cytopathogenicity. The conditions noted are these: Human immunodeficiency virus 1, 3B. It is filed as functional, organism-based.
The nature of series [2]: Selectivity index, ratio of CC50 for human MT4 cells to EC50 for HIV1 3B. The format is toxicity, cell-based. The conditions noted are these: for selectivity ratio: MT4 cells, read-out: Ratio CC50/EC50; for Activity: mt4.
Series [3] can be described thus: Cytotoxicity against human MT4 cells. The format is cell-based.

A value given as a limit tells only on which side of the number the result lay.

On to `NS(=O)(=O)c1ccc(NC(=O)CSc2nnc(Br)n2-c2ccc(C3CC3)c3ccccc23)c(Cl)c1`, for which the EC50 in series [1] was 0.14 µM.

For `O=C1Nc2ccc(Cl)cc2[C@@](C#CC2CC2)(C(F)(F)F)O1` [EFAVIRENZ], in series [2], the selectivity ratio is over 1430. Also, the EC50 in series [1] worked out at 0.0044 µM. Also, the CC50 in series [3] is over 6.34 µM.

Consider `COc1ccc(-c2nnsc2SCC(=O)Nc2ccccc2Cl)cc1`, for which the selectivity ratio in series [2] is over 121. Moreover, the EC50 in series [1] is 2.63 µM. The compound further registered a CC50 in series [3] of over 319 µM.

For `O=C(CSc1snnc1-c1ccc(Cl)cc1Cl)Nc1ccccc1F`, the selectivity ratio in series [2] was found to be 145. Also, in series [1], the EC50 came out at 0.135 µM. The same compound gave a CC50 in series [3] of 19.5 µM.

For the compound `Cc1cn([C@H]2C[C@H](N=[N+]=[N-])[C@@H](CO)O2)c(=O)[nH]c1=O` [ZIDOVUDINE], in series [2], the selectivity ratio was over 6190. Also, the EC50 in series [1] amounted to 0.0151 µM. The same compound displayed a CC50 in series [3] of over 93.5 µM.

As to `CCOC(=O)c1ccc(NC(=O)CSc2snnc2-c2ccccc2)c(Br)c1`, in series [2], the selectivity ratio was at least 45. For the same compound, the EC50 in series [1] is 5.21 µM. In series [3], the CC50 is at least 232 µM.

In the case of `O=C(CSc1snnc1-c1ccc(Cl)cc1Cl)Nc1ccccc1Cl`, the selectivity ratio in series [2] was determined as 943. Besides, the EC50 in series [1] amounted to 0.118 µM. This compound had a CC50 in series [3] of 111 µM.

Turning to `O=C(CSc1snnc1-c1ccc(Cl)cc1Cl)Nc1ccccc1[N+](=O)[O-]`, the selectivity ratio in series [2] was over 4880. In series [1], the EC50 worked out at 0.059 µM. For the same compound, the CC50 in series [3] is over 283 µM.

With `CCOC(=O)c1ccc(NC(=O)CSc2snnc2-c2ccc(OC)cc2)c(Br)c1`, the selectivity ratio in series [2] is over 82. Besides, in series [1], the EC50 worked out at 3.01 µM. In addition, in series [3], the CC50 was over 246 µM.

For the compound `CCOC(=O)c1ccc(NC(=O)CSc2snnc2-c2ccc(Cl)cc2Cl)c(Br)c1`, the selectivity ratio in series [2] is over 2300. The EC50 in series [1] turned out to be 0.099 µM. This compound had a CC50 in series [3] of over 228 µM.

Consider `CC(C)Nc1cccnc1N1CCN(C(=O)c2cc3cc(NS(C)(=O)=O)ccc3[nH]2)CC1` [DELAVIRDINE], for which the selectivity ratio in series [2] was over 12. The EC50 in series [1] was determined as 0.32 µM. The compound also returned a CC50 in series [3] of over 3.83 µM.

Take `COC(=O)c1ccc(NC(=O)CSc2snnc2-c2ccccc2)c(Br)c1`: the selectivity ratio in series [2] is over 53. Moreover, the EC50 in series [1] amounted to 5.1 µM. The CC50 in series [3] was over 269 µM.

`Cc1ccc(NC(=O)CSc2snnc2-c2ccccc2)c(Br)c1`: the selectivity ratio in series [2] was over 22. Further, the EC50 in series [1] turned out to be 13.7 µM. The compound also had a CC50 in series [3] of over 297 µM.

Consider `O=C(CSc1snnc1-c1ccccc1)Nc1ccccc1F`, for which the Activity entry in series [2] is “Not Active”. Moreover, in series [1], the EC50 stood at 362 µM. Also, the CC50 in series [3] is over 362 µM.

For `Cc1ccc(-n2c(C)nnc2SCC(=O)Nc2ccccc2)cc1`, the EC50 in series [1] worked out at 2.05 µM.

With `O=C(CSc1snnc1-c1ccccc1)Nc1ccccc1Br`, the selectivity ratio in series [2] is over 14. Moreover, in series [1], the EC50 stood at 22.4 µM. The compound also came in with a CC50 in series [3] of over 308 µM.

With `O=C(CSc1snnc1-c1ccccc1)Nc1ccccc1Cl`, in series [2], the selectivity ratio is over 13. In addition, the EC50 in series [1] was determined as 26.1 µM. The CC50 in series [3] was over 345 µM.

`COc1ccc(-c2nnsc2SCC(=O)Nc2ccccc2F)cc1`: the Activity entry in series [2] is on record as “Not Active”. Moreover, the EC50 in series [1] came to 333 µM. The half-maximal cytotoxic concentration (CC50) in series [3] was over 333 µM.

In the case of `O=C(CSc1snnc1-c1ccccc1)Nc1ccccc1[N+](=O)[O-]`, the Activity entry in series [2] is given as “Not Active”. In series [1], the EC50 was at least 54.2 µM. For the same compound, in series [3], the CC50 is at least 247 µM.

Regarding `COc1ccc(-c2nnsc2SCC(=O)Nc2ccccc2Br)cc1`, in series [2], the selectivity ratio was over 90. Also, the EC50 in series [1] turned out to be 3.19 µM. The same compound yielded a CC50 in series [3] of over 286 µM.

Consider `O=C(CSc1snnc1-c1ccc(F)cc1F)Nc1ccccc1[N+](=O)[O-]`, for which, in series [2], the selectivity ratio was 40. Moreover, the EC50 in series [1] amounted to 4.14 µM. For the same compound, the CC50 in series [3] worked out at 165 µM.

For `COC(=O)c1ccc(NC(=O)CSc2snnc2-c2ccc(OC)cc2)c(Br)c1`, the selectivity ratio in series [2] turned out to be 97. Also, the EC50 in series [1] was 2 µM. Further, the CC50 in series [3] was 195 µM.

Regarding `O=C(CSc1snnc1-c1ccc(Cl)cc1Cl)Nc1ccccc1Br`, the selectivity ratio in series [2] was at least 981. For the same compound, the EC50 in series [1] was found to be 0.149 µM. Further, in series [3], the CC50 was at least 147 µM.

Consider `Cc1ccc(NC(=O)CSc2snnc2-c2ccc(F)cc2F)c(Br)c1`, for which, in series [2], the selectivity ratio is over 189. Also, the 50% effective concentration (EC50) in series [1] amounted to 1.45 µM. In series [3], this compound yielded a CC50 of over 274 µM.

As to `O=C(CSc1snnc1-c1ccc(F)cc1F)Nc1ccccc1Cl`, the selectivity ratio in series [2] came out at 146. The EC50 in series [1] worked out at 1.23 µM. This compound also came in with a CC50 in series [3] of 178 µM.

For `Cc1ccnc2c1NC(=O)c1cccnc1N2C1CC1` [NEVIRAPINE], in series [3], the CC50 was over 15 µM.

As for `COc1ccc(-c2nnsc2SCC(=O)Nc2ccc(C)cc2Br)cc1`, the selectivity ratio in series [2] worked out at 49. Also, the EC50 in series [1] turned out to be 5.06 µM. The midpoint of cytotoxicity in series [3], the CC50, lay at 249 µM.

With `Cc1ccc(NC(=O)CSc2snnc2-c2ccc(Cl)cc2Cl)c(Br)c1`, the selectivity ratio in series [2] was over 1260. The 50% effective concentration (EC50) in series [1] worked out at 0.204 µM. Besides, the CC50 in series [3] is over 256 µM.

For `COc1ccc(-c2nnsc2SCC(=O)Nc2ccccc2[N+](=O)[O-])cc1`, in series [2], the selectivity ratio is at least 283. Moreover, in series [1], the EC50 came to 0.99 µM. This compound yielded a 50% cytotoxic concentration (CC50) in series [3] of at least 281 µM.

As for `O=C(CSc1snnc1-c1ccc(F)cc1F)Nc1ccccc1Br`, the EC50 in series [1] was determined as 2.26 µM. Further, the CC50 in series [3] was determined as 144 µM.

Consider `O=C(CSc1snnc1-c1ccc(F)cc1F)Nc1ccccc1F`, for which the selectivity ratio in series [2] stood at 27. The 50% effective concentration (EC50) in series [1] turned out to be 5.45 µM. This compound came in with a CC50 in series [3] of 148 µM.

One may read the EC50 as the concentration needed to bring the measured effect to its halfway point. The CC50 is the concentration that lowers cell viability or growth by half. High values mean better tolerance by the cells, low ones harm at low concentration.

For the origin of these results see ChEMBL document CHEMBL1142475, “1,2,3-Thiadiazole thioacetanilides as a novel class of potent HIV-1 non-nucleoside reverse transcriptase inhibitors” (Bioorg Med Chem Lett, 2008).
